We go through one compound from ChEMBL document CHEMBL1129317, “Novel selective and partial agonists of 5-HT3 receptors. Part 1. Synthesis and biological evaluation of piperazinopyrrolothienopyrazines” (J Med Chem, 1996).

Assay [1] deals with Glutamate [NMDA] receptor (Homo sapiens) (UniProt Q05586+Q12879+Q13224+O15399+O60391+Q14957+Q8TCU5). Nature of the assay: Inhibitory activity against NMDA using [3H]CGS-19,755 at […] (M). In kind it is protein-complex assay.
In assay [2] the target is Glutamate receptor ionotropic AMPA (Homo sapiens) (UniProt P48058+P42263+P42262+P42261). Kind of assay: Inhibitory activity against Quisqualate receptor using [3H]AMPA at […] (M). In kind it is protein-complex assay.
Assay [3] can be described thus: Inhibition of [3H]batrachotoxin binding to sodium channel at 10e-7 M.
Assay [4] concerns the target T1, Serotonin 3 (5-HT3) receptor (Rattus norvegicus, UniProt P35563+Q9JJ16).
T1 sequence (P35563 whole entry): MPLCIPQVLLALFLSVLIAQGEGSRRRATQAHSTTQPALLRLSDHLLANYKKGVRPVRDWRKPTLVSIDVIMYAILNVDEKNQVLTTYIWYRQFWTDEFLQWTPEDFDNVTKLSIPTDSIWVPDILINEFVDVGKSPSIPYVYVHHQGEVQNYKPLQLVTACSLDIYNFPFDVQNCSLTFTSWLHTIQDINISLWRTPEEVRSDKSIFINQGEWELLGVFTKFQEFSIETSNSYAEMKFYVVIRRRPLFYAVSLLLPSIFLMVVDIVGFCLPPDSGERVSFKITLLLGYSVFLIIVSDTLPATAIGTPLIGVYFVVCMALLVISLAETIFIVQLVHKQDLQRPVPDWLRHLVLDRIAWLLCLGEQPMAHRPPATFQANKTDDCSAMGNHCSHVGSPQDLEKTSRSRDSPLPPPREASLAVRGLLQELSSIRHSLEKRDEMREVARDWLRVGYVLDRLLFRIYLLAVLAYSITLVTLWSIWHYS
T1 sequence (Q9JJ16 whole entry): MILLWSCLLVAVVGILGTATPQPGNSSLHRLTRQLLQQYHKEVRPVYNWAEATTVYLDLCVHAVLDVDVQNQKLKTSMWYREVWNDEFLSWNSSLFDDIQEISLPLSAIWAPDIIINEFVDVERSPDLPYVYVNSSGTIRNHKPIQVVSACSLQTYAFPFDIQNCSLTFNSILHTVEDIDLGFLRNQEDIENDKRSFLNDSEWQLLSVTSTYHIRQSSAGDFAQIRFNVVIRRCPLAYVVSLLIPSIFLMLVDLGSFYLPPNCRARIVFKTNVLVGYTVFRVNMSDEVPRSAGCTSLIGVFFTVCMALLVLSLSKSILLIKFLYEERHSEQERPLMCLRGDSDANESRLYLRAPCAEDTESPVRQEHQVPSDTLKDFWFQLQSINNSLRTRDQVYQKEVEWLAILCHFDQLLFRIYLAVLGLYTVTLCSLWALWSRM
Nature of the assay: Binding affinity towards 5-hydroxytryptamine 3 receptor. Format: protein-complex assay.

Assay [5] has as its target Muscarinic acetylcholine receptor M1 (Homo sapiens) (UniProt P11229). Kind of assay: Inhibitory activity against Muscarinic acetylcholine receptor M1 using [3H]pirenzepine at […] (M).
Assay [6] has as its target Gastrin/cholecystokinin type B receptor (Homo sapiens) (UniProt P32239). Kind of assay: Inhibitory activity against Cholecystokinin type B receptor using [3H]CCK-8 at […] (M).
Assay [7] has as its target Tumor necrosis factor receptor superfamily member 1A (Homo sapiens) (UniProt P19438). Kind of assay: Inhibitory activity against TNF using [125]TNF at 10e-5 (M).
The target of assay [8] is Muscarinic acetylcholine receptor M3 (Homo sapiens) (UniProt P20309). Kind of assay: Inhibitory activity against Muscarinic acetylcholine receptor M3 using [3H]NMS at […] (M).
The nature of assay [9]: Inhibition of [3H]apamin binding to Potassium channel at 10e-5 M.
In assay [10] the target is Muscarinic acetylcholine receptor M2 (Homo sapiens) (UniProt P08172). Nature of the assay: Inhibitory activity against Muscarinic acetylcholine receptor M2 using [3H]NMS at […] (M).
A short description of assay [11]: Inhibition of [3H]batrachotoxin binding to sodium channel at 10e-5 M.
Assay [12] concerns the target Angiotensin II receptor (Homo sapiens) (UniProt P30556+P50052). Nature of the assay: Inhibitory activity against Angiotensin II receptor using [3H]Angiotensin II at […] (M). In kind it is protein assay.
Assay [13] has as its target T2, 5-hydroxytryptamine receptor 2C (Homo sapiens, UniProt P28335).
T2 sequence (P28335 whole entry): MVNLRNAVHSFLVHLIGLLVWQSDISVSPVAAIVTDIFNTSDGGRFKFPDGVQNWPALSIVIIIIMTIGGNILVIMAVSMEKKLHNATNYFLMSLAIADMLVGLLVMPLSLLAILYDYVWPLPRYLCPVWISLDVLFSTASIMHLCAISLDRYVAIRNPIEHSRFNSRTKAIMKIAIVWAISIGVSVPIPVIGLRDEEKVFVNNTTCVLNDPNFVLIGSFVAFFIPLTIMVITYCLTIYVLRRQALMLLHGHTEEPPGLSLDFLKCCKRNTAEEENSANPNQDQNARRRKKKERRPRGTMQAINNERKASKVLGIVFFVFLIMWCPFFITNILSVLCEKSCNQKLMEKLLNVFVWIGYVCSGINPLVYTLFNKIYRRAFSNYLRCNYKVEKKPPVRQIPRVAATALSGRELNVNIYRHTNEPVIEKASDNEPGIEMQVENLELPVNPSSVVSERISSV
Nature of the assay: Binding affinity towards 5-hydroxytryptamine 2C receptor.

In assay [14] the target is GABA-A receptor; anion channel (Homo sapiens) (UniProt P14867+P47870+P18507+P28472+P48169+Q99928+Q9UN88+P34903+O00591+O14764+Q8N1C3+P18505+P78334+P47869+P31644+Q16445). Nature of the assay: Inhibitory activity against Gamma-aminobutyric acid A (GABA-A) receptor using [3H]-muscimol at 10e-5 M. In kind it is protein-complex assay.
Assay [15] concerns the target Cysteinyl leukotriene receptor 1 (Homo sapiens) (UniProt Q9Y271). Nature of the assay: Inhibitory activity against Cysteinyl leukotriene D4 receptor using [3H]- LTD4 at […] (M).
For assay [16], the target named is Leukotriene B4 receptor 1 (Homo sapiens) (UniProt Q15722). Kind of assay: Inhibitory activity against Leukotriene B4 receptor using [3H]- LTB4 at […] (M).
Assay [17] concerns the target T3, Serotonin 3 (5-HT3) receptor (Rattus norvegicus) (UniProt P35563+Q9JJ16). Kind of assay: Agonistic activity of compound towards 5-hydroxytryptamine 3 receptor in Von Bezold-Jarisch Reflex in rats at 60 (ug/kg), evaluated as change in heart rate. In kind it is functional.
The target of assay [18] is T3, Serotonin 3 (5-HT3) receptor (Rattus norvegicus). Kind of assay: Antagonistic activity of compound towards 5-hydroxytryptamine 3 receptor in Von Bezold-Jarisch reflex in rats at 60 (ug/kg), evaluated as percent inhibition of bradycardia. In kind it is functional.

Chain of Gastrin/cholecystokinin type B receptor (Homo sapiens) (P32239 whole entry): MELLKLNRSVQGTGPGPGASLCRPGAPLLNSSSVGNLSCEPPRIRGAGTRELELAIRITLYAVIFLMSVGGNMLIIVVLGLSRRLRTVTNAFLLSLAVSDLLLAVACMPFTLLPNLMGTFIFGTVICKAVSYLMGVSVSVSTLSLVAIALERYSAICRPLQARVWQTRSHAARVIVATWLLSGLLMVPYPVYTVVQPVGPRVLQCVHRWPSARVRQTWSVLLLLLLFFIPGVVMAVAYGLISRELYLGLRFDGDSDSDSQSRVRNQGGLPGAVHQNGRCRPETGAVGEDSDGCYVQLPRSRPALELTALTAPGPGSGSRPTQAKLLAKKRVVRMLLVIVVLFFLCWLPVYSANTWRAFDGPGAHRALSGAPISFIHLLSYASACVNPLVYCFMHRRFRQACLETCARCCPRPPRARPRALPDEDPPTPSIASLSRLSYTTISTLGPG
Chain of Muscarinic acetylcholine receptor M1 (Homo sapiens) (P11229 whole entry): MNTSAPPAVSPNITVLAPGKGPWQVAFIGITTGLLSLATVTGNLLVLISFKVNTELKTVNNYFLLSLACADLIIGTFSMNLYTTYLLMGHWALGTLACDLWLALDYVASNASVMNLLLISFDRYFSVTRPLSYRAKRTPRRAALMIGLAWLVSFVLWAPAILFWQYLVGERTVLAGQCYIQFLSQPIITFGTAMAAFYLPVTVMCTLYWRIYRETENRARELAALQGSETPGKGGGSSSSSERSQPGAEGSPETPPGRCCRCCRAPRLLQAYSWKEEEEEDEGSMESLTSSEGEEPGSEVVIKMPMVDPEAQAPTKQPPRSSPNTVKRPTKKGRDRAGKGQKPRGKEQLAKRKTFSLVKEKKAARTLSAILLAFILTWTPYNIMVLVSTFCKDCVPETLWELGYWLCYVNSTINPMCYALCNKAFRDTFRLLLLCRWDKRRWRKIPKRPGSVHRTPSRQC
Chain of Leukotriene B4 receptor 1 (Homo sapiens) (Q15722 whole entry): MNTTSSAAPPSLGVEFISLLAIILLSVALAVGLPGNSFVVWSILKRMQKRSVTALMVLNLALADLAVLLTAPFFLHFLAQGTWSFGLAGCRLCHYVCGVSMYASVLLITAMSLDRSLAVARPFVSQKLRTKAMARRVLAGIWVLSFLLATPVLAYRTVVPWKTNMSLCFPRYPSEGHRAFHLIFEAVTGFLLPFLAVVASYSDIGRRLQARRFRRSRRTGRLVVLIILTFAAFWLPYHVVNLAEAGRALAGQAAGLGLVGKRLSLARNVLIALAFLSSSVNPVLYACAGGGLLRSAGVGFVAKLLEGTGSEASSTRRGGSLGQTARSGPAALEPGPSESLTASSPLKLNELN
Chain of Tumor necrosis factor receptor superfamily member 1A (Homo sapiens) (P19438 whole entry): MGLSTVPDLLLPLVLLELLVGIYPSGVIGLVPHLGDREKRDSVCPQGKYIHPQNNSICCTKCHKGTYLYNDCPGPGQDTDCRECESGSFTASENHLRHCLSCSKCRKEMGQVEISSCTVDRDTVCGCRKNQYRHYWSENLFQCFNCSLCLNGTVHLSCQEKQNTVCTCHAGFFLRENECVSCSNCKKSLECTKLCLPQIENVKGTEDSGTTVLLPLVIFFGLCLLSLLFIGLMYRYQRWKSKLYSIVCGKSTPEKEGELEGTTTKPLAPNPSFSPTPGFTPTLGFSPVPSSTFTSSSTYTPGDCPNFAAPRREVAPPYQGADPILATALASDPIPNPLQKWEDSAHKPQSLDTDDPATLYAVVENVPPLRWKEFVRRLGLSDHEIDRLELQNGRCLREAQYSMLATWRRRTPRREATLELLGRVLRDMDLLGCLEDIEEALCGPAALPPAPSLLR
Chain of Muscarinic acetylcholine receptor M2 (Homo sapiens) (P08172 whole entry): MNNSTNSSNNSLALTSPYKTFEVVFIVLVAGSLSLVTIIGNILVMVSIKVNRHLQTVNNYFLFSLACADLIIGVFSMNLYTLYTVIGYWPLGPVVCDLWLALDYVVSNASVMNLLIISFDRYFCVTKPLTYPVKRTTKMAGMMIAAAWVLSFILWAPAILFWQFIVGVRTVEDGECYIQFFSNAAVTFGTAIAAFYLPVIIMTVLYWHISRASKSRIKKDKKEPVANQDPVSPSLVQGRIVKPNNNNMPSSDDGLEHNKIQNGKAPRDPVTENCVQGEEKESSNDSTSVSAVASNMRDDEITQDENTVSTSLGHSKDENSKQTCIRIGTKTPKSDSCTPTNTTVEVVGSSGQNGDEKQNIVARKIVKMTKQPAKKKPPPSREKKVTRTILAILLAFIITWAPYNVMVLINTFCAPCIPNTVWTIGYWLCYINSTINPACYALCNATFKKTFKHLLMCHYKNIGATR
Chain of Muscarinic acetylcholine receptor M3 (Homo sapiens) (P20309 whole entry, looked up): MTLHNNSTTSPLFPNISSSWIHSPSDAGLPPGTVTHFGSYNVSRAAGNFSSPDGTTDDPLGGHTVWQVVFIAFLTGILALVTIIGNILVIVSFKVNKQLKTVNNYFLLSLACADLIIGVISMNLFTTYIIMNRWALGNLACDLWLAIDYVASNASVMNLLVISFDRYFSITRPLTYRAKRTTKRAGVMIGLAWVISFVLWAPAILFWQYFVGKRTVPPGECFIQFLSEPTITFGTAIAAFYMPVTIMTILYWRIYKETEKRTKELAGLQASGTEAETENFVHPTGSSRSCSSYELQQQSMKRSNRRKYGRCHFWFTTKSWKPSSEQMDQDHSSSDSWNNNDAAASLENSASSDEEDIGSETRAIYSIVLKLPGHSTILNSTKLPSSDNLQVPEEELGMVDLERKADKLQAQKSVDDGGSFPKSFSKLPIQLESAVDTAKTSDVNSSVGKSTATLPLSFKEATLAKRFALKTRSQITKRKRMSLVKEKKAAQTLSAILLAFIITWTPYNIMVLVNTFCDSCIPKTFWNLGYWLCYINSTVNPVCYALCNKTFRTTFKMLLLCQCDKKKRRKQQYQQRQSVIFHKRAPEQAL
Chain of Cysteinyl leukotriene receptor 1 (Homo sapiens) (Q9Y271 whole entry): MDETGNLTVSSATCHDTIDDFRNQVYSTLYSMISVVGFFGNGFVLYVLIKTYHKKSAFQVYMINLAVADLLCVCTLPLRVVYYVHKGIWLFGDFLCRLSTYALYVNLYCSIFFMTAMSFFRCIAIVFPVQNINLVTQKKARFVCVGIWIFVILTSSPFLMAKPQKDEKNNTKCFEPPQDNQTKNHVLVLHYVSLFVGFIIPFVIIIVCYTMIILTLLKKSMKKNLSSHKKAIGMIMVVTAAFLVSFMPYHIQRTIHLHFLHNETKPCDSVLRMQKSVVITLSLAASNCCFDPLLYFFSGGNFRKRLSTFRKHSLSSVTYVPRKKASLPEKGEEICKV

Take `c1ccc(CN2CCN(c3nc4ccsc4n4cccc34)CC2)cc1`: the inhibition in [1] turned out to be 19%; in assay [2] it was 24%; in assay [3] it was 28%; in [5], 29%; in assay [6], 18%; in assay [7], 7%. In addition, the inhibition in [8] is 20%; in assay [9], 6%; in [10], 5%; in assay [11], 79%; in assay [12] it was 18%; in [14], 31%. Besides, the inhibition in assay [15] stood at 1%; in assay [16], 17%. The figures for the IC50 in [4] and in [13] were 1.41 nM and 1860 nM, respectively. Also, the results for the Change in assay [17] and in assay [18] were 0% and 40%, respectively.
